≈ marks a conversion by molar mass, not a printed value. Like-named read-outs stand apart in the source and are kept apart here.
Key:
H37Rv Mtb strain = experiment: MIC90 in different media, H37Rv strain; type: cell-based, Mycobacterium tuberculosis
Mtb H37Rv strain = experiment: MIC90 determination in GASTE-Fe media (broth microdilution); type: cell-based, Mycobacterium tuberculosis; settings: Mycobacterium tuberculosis, H37RV, 336 h, read-out: MIC90 GASTE-Fe
recA expression = type: cell-based; settings: indicator of genotoxic compounds
in vitro = settings: Chinese hamster
physchem = type: physicochemical; settings: 25 °C, pH 7.4, aqueous buffer, kinetic solubility, pH 7.4, HPLC method
Method: The kinetic solubility assay was performed using a miniaturised shake flask method. 10 mM stock solutions of each of the test compounds were used to prepare calibration standards (10-220μM) in DMSO. The same 10mM stock solutions were accurately dispensed in duplicate into 96-well plates and the DMSO dried down (MiVac GeneVac, 90 min, 37 °C). Thereafter, the samples were reconstituted (200 µM) in phosphate buffered saline (pH 7.4) and shaken (20 hours, 25 °C). The solutions were filtered and analysed by means of HPLC -DAD (Agilent 1200 Rapid Resolution HPLC with a diode array detector). […]

[1] = type: in vitro ADME; settings: human liver microsomes
Method: 3.2. Microsomal stability
The metabolic stability assay was performed in duplicate in a 96-well micro titre plate. The test compounds (0.1 μM) were incubated individually in mouse, rat and pooled human liver microsomes ((final protein concentration of 0.4 mg/mL; XenoTech, Lenexa, KS ), suspended in 0.1M phosphate buffer (pH 7.4) at 37 °C for predetermined time points, in the presence and absence of the cofactor NADPH (1 mM). Reactions were quenched by adding ice cold acetonitrile containing internal standard (carbamazepine, 0.0236 µg/mL). T he samples were centrifuged and test compound in the supernatant were analysed by means of LC -MS/MS (Agilent Rapid Resolution HPLC, AB SCIEX 4500 MS ). The relative loss of parent compound over time was monitored and plots (concentration vs. time) were prepared per compound to determine the first order rate constant for compound depletion. This was in turn used to calculate half-life, in vitro intrinsic clearance and in vivo hepatic extraction ratio. Metabolite searches were not conducted during the metabolic stability assay. 5

iniB expression = type: cell-based; settings: detects compounds targeting cell-wall biosynthesis
in vivo = experiment: in vivo; set-up: species or system C57/BL6 mice
Method: In vivo PK studies were performed on compound 1 (sulfone) and compound 2 (sulfoxide) (Table 3). All studies and procedures were conducted with prior approval of the animal ethics committee of the University of Cape Town (approval numbers 013/028 and 014/028) in accordance with the South African National Standard (SANS 10386:008) for the Care and Use of Animals for Scientific Purposes and guidelines from the Department of Health. […]
the South African National Standard (SANS 10386:008) for the Care and Use of Animals for Scientific Purposes,6 and guidelines from the Department of Health.7
The pharmacokinetic parameters of the compounds were determined by dosing the compound to C57/BL6 mice through oral (n = 3 mice) and intravenous (n = 3 mice) administration. For oral administration, the compounds were formulated in 0.5% hydroxypropylmethyl cellulose (HPMC) in Phosphate buffered saline pH 7.4. The intravenous doses were administered in dimethylacetamide-polyethylene glycol 400-polypropylene glycol (DMA-PEG400-PPG) (10:30:60) Blood samples were collected via tail bleeding at predetermined time points and stored at -80°C until liquid chromatography-tandem mass spectrometry (LC-MS/MS) analysis.
The whole-blood concentrations of the compounds were determined using a quantitative LC- […]
method, using ice -cold acetonitrile.
After centrifugation, the supernatant was transferred to 96 -well plates for analysis. LC -MS/MS was carried out on an AB Sciex 400 0 QTrap coupled to an Agilent 1200 high -performance liquid chromatograph (HPLC). Separation was achieved on a Kinetex PFP column column, using 0.1% formic acid in water as the aqueous mobile phase and 0.1% formic acid in acetonitrile as the organic mobile phase. The analytical limit of quantitation (LOQ) was 1 ng/ml. LC-MS/MS method accuracy and precision were 15% (nom) for the standards and […]
Concentration-versus-time data were used to derive the PK parameters using noncompartmental analys is on PK Solutions 2.0 (Summit Research Services, Montrose, CO,

[2] = tested on: cytochrome-bd oxidase knockout mutant strain (Δcyd); type: cell-based
Erdman Mtb strain = experiment: MIC90 in different media, Erdman strain; type: cell-based; settings: Mycobacterium tuberculosis
[3] = 100 mg/kg oral once per day, 12 days, three days after last dose, untreated 6.51
[4] = Mycobacterium tuberculosis, H37RV; 7H12 + casitone + palmitic acid + BSA + catalase + Tween 80 (glycerol-free); read-out: MIC90
[5] = Mycobacterium tuberculosis, H37RV; read-out: MIC90
[6] = Erdman, 7H12 + casitone + palmitic acid + BSA + catalase + Tween 80 (glycerol-free)

CO[C@H]1/C=C/O[C@@]2(C)Oc3c(C)c(O)c4c(O)c(c(/C=N/N5CCN(C)CC5)c(O)c4c3C2=O)NC(=O)/C(C)=C\C=C\[C@H](C)[C@H](O)[C@@H](C)[C@@H](O)[C@@H](C)[C@H](OC(C)=O)[C@@H]1C [Rifampicin, reference compound]
MIC90 (H37Rv Mtb strain): <0.008 µg/mL | MIC (H37Rv Mtb strain; Mycobacterium tuberculosis, H37RV, read-out: MIC90): 0.016 µg/mL (≈ 0.0194 µM) | mean lung burdens (Mtb Erdman-Lux; mouse, in vivo): 5.72 log10 CFU | reduction of lung burdens (Mtb Erdman-Lux; mouse, in vivo): 0.8 log | MIC90 (Mtb H37Rv strain): 0.0039 µM (≈ 0.00321 µg/mL)

CC[C@@H](CO)NCCN[C@@H](CC)CO [ethambutol, reference compound]
mean lung burdens (Mtb Erdman-Lux; [3]): 4.15 log10 CFU | reduction of lung burdens (Mtb Erdman-Lux; 100 mg/kg, relative to untreated): 2.4 log

C[S+]([O-])c1cccc(-c2ccc3nc(N)n(-c4ccc(C(F)(F)F)cc4)c(=O)c3c2)c1 (stereo not shown) [compound 2, 2-Amino-6-(3-(methylsulfinyl)phenyl)-3-(4-(trifluoromethyl)phenyl)quinazolin-4(3H)-one]
MIC (H37Rv Mtb strain; [4]): > 16 µg/mL | MIC (H37Rv Mtb strain; [5]): 0.5 µg/mL (≈ 1.13 µM) | signal in PrecA-LUX reporter assay (recA expression): did not show a positive signal | IC50 (in vitro): > 100 µM | solubility (physchem): 80 µM (≈ 35.5 µg/mL) | mean lung burdens (Mtb Erdman-Lux; [3]): 7.84 log10 CFU | mean lung burdens (Mtb Erdman-Lux; 200 mg/kg oral once per day, 12 days, three days after last dose, untreated 6.51): 7.75 log10 CFU | tolerability (Mtb Erdman-Lux; 100 and 200 mg/kg oral once per day, 12 consecutive days): no evidence of compound tolerability issues | efficacy in the BALB/c acute infection model (Mtb Erdman-Lux; 100 and 200 mg/kg oral, 12 days): lack efficacy | Metabolic Stability H (% Rem.) [1]: 88/-/- % Rem. | signal in PiniB-LUX reporter assay (iniB expression): did not show a positive signal | Vd (in vivo; C57/BL6, in vivo, mouse, iv 5 mg/kg): 11.1 L/kg | clearance (in vivo; C57/BL6, in vivo, mouse, iv 5 mg/kg, read-out: CLtotal): 21.8 mL/min/kg | half-life (in vivo; C57/BL6, in vivo, mouse, iv 5 mg/kg, read-out: apparent t1/2 (converted)): 6.2 h | Tmax (in vivo; C57/BL6, in vivo, mouse, oral 20 mg/kg): 0.5 h | Cmax (in vivo; C57/BL6, in vivo, mouse, oral 20 mg/kg, whole blood): 3.54 µM | bioavailability (in vivo; C57/BL6, mouse, in vivo, oral 20 mg/kg vs iv 5 mg/kg, read-out: bioavailability): 93% | AUC0–∞ (in vivo; mouse, iv 5 mg/kg): 523 min·μmol·L^–1 | AUC0–∞ (in vivo; mouse, oral 20 mg/kg): 2152 min·μmol·L^–1 | Δcyd GASTE-Fe MIC90 [2]: 2.5 µM | MIC90 (Mtb H37Rv strain; Mtb H37Rv, replicating conditions, GASTE-Fe media, read 14 days after incubation): 0.64 µM (≈ 0.284 µg/mL) | MIC (Erdman Mtb strain): 1 µg/mL (≈ 2.26 µM) | MIC (Erdman Mtb strain; [6]): > 16 µg/mL

NNC(=O)c1ccncc1 [isoniazid, reference compound]
MIC (H37Rv Mtb strain; [4]): 0.016 µg/mL | MIC (H37Rv Mtb strain; [5]): 0.016 µg/mL (≈ 0.117 µM) | MIC (Erdman Mtb strain): 0.016 µg/mL (≈ 0.117 µM) | MIC (Erdman Mtb strain; [6]): 0.016 µg/mL
